Where two headings read alike, the source gives them in different places.
How the values were obtained:
VHL30 = VHL30 (Homo sapiens, UniProt P40337); experiment: Immunoblotting (western blot) quantification of VHL30 levels in MM.1S cells; details: for remaining activity at 0.1 µM: MM1.S
XIAP = XIAP (Homo sapiens, UniProt P98170); experiment: Immunoblotting (western blot) quantification of XIAP levels in MM.1S cells; details: MM1.S, 16 h
Protocol: (§1) To evaluate the capability of our panel of hetero-PROTACs for E3 ligase degradation, VHL19, VHL30, CRBN, cIAP1, cIAP2, and XIAP levels were quantified by western blot analyses. […] SDS-PAGE was performed, and proteins were then transferred onto PVDF membranes. Blotted membranes were blocked with 5% milk in Tris-buffered saline/Tween20 (TBST). Primary antibodies were diluted in 5% BSA in TBST, and incubations were performed overnight at 4 °C. Secondary HRP-conjugated antibodies diluted in 5% milk were incubated for 1 h at room temperature. Detection of proteins on PVDF was carried out using the WesternBright ECL HRP substrate or the WesternBright Sirius HRP substrate (Advansta, San Jose, USA) and imaged with LAS 4000× (Fujifilm). Membranes were subjected to 10 min incubation with Restore Western Blot Stripping Buffer (Thermo Fisher Scientific, Waltham, USA), followed by TBST washes. After brief re-activation with methanol, the membranes were blocked, and further probing of proteins was carried out.
(§2) Quantification of blots was performed using ImageJ software (National Institutes of Health).

cIAP2 = cIAP2 (Homo sapiens, UniProt Q13489); experiment: Immunoblotting (western blot) quantification of cIAP2 levels in MM.1S cells; details: MM1.S, 16 h
Chain of cIAP2 (Q13489 whole entry): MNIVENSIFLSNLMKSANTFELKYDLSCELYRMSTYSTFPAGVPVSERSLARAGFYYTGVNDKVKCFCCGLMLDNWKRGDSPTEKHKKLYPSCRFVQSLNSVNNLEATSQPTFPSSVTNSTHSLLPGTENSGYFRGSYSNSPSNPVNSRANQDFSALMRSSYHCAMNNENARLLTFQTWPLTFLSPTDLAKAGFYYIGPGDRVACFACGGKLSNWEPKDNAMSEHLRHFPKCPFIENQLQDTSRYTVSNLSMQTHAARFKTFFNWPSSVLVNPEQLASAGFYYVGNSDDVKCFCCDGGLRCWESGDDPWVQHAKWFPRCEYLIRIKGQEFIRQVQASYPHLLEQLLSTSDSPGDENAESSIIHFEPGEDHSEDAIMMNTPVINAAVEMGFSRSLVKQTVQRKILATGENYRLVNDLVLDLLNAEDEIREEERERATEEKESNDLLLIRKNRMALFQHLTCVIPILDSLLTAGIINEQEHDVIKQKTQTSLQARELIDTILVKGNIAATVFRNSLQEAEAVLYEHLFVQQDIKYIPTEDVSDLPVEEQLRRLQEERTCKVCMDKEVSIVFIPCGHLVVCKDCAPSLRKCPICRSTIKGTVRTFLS

cIAP1 = cIAP1 (Homo sapiens, UniProt Q13490); experiment: Immunoblotting (western blot) quantification of cIAP1 levels in MM.1S cells; details: MM1.S, 16 h
Chain of cIAP1 (Q13490 whole entry): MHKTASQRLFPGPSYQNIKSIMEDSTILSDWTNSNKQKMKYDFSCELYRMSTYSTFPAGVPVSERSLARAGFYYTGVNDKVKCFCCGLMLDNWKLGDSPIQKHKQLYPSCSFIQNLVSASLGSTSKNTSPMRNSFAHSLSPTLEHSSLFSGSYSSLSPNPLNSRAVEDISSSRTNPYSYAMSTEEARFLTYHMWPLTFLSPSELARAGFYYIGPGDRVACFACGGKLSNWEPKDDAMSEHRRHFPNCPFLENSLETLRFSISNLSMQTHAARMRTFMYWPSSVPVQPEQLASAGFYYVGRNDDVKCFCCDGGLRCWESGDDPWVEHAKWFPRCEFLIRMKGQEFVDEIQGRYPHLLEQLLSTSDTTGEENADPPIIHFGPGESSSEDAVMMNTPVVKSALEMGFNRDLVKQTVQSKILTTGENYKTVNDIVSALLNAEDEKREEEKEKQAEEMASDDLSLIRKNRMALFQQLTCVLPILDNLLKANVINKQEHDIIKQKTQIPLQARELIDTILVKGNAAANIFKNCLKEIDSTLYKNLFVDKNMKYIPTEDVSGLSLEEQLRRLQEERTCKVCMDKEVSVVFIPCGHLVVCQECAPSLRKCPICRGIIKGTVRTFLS
Protocol: as §1, §2

[1] = system: IAPs (cIAP1, cIAP2, XIAP); experiment: Immunoblotting of IAPs in MM.1S cells, overall degradation profile, time course and washout; format: cell-based; details: 16 h, western blot, concentration (10 nM to 1 μM)
Protocol: Next, we examined the persistence of IAP degradation in MM.1S cells after a single exposure to 1 μM of 9 and subsequent removal of the compound. […] The reliance on CRL2^VHL was assessed with a neddylation inhibitor MLN4924, which blocks the activity of CRLs (Figure S13A).

[2] = Log D7.4 measurement by chromatographic (fast-gradient HPLC) method; details: pH 7.4
Protocol: The system was calibrated by plotting the retention times of six different drugs (atenolol, metoprolol, labetalol, diltiazem, triphenylene, and permethrin) versus their literature-known log D7.4 in a calibration line (R^2 = 0.99). Subsequently, the mean retention times of the analytes were taken to calculate their log D7.4 values with the aid of the calibration line. At least two independent measurements of each analyte were performed.

[3] = read-out: %remaining protein XIAP, MM.1S cells, 16 h treatment at 0.1 μM, normalized to loading control and DMSO
[4] = read-out: %remaining protein cIAP2, MM.1S cells, 16 h treatment at 0.1 μM, normalized to loading control and DMSO
[5] = read-out: %remaining protein cIAP1, MM.1S cells, 16 h treatment at 0.1 μM, normalized to loading control and DMSO
[6] = 16 h, read-out: %remaining protein VHL30, MM.1S cells, 16 h treatment at 0.1 μM, normalized to loading control and DMSO
[7] = read-out: %remaining protein XIAP
[8] = read-out: %remaining protein cIAP2
[9] = read-out: %remaining protein cIAP1
[10] = 16 h, read-out: %remaining protein VHL30

Chain of VHL30 (P40337 whole entry): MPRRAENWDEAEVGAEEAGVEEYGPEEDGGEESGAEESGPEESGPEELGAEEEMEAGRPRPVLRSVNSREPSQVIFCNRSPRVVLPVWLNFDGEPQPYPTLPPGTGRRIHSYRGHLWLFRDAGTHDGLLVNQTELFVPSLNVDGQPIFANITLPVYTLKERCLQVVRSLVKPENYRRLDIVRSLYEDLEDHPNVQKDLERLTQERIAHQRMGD
Chain of XIAP (P98170 whole entry): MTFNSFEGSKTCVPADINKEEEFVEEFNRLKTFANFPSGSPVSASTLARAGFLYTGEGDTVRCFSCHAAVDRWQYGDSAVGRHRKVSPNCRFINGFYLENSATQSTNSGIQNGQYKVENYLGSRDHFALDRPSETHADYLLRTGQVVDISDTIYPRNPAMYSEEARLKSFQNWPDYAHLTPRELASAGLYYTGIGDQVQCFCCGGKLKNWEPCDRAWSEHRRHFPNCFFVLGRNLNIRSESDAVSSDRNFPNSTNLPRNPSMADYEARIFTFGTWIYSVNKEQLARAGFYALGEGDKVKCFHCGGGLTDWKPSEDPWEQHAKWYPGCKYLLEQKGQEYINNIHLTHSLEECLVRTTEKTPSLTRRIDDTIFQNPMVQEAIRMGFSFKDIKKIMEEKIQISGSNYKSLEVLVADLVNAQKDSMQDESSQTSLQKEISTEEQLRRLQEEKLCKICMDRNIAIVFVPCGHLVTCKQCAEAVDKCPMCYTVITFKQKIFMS

| SMILES | remaining activity at 0.1 µM (XIAP; [3]) [%] | remaining activity at 0.1 µM (cIAP2; [4]) [%] | remaining activity at 0.1 µM (cIAP1; [5]) [%] | remaining activity at 0.1 µM (VHL30; [6]) [%] | IAP degradation profile (in words) [1] | also measured |
| --- | --- | --- | --- | --- | --- | --- |
| Cc1ncsc1-c1ccc(CNC(=O)[C@@H]2C[C@@H](O)CN2C(=O)[C@@H](NC(=O)COCCOCCOCCOCCOCCOCC(=O)N[C@H](C(=O)N2C[C@H](O)C[C@H]2C(=O)NCc2ccc(-c3scnc3C)cc2)C(C)(C)C)C(C)(C)C)cc1 [CM11, reference compound] |  |  |  |  |  | VHL30 degradation (in words) (VHL30; MM.1S cells, western blot): strong and dose-dependent VHL30 degradation |
| CN[C@@H](C)C(=O)N[C@H](C(=O)N1C[C@@H](Oc2cccc(OCCCCOCCCC(=O)N[C@H](C(=O)N3C[C@H](O)C[C@H]3C(=O)NCc3ccc(-c4scnc4C)cc3)C(C)(C)C)c2)C[C@H]1C(=O)N[C@@H]1CCCc2ccccc21)C1CCCCC1 [PROTAC 3, (2S,4S)-1-((S)-2-Cyclohexyl-2-((S)-2-(methylamino)propanamido)acetyl)-4-(3-(4-(4-(((S)-1-((2S,4R)-4-hydroxy-2-((4-(4-methylthiazol-5-yl)benzyl)carbamoyl)pyrrolidin-1-yl)-3,3-dimethyl-1-oxobutan-2-yl)amino)-4-oxobutoxy)butoxy)phenoxy)-N-((R)-1,2,3,4-tetrahydronaphthalen-1-yl)pyrrolidine-2-carboxamide] | 4 | 30 | 3 | 29 |  | VHL30 protein degradation (VHL30; MM.1S cells, 16 h, 0.1 μM, quantified by western blot): 71% |
| CN[C@@H](C)C(=O)N[C@H](C(=O)N1C[C@@H](Oc2cccc(OCCOCCOCCOCC(=O)N[C@H](C(=O)N3C[C@H](O)C[C@H]3C(=O)NCc3ccc(-c4scnc4C)cc3)C(C)(C)C)c2)C[C@H]1C(=O)N[C@@H]1CCCc2ccccc21)C1CCCCC1 [PROTAC 5, (2S,4R)-1-((S)-2-(tert-Butyl)-14-(3-(((3S,5S)-1-((S)-2-cyclohexyl-2-((S)-2-(methylamino)propanamido)acetyl)-5-(((R)-1,2,3,4-tetrahydronaphthalen-1-yl)carbamoyl)pyrrolidin-3-yl)oxy)phenoxy)-4-oxo-6,9,12-trioxa-3-azatetradecanoyl)-4-hydroxy-N-(4-(4-methylthiazol-5-yl)benzyl)pyrrolidine-2-carboxamide] | 2 | 37 | 2 | 37 |  |  |
| CN[C@@H](C)C(=O)N[C@H](C(=O)N1C[C@@H](Oc2cccc(OCCCCCCOCCCCCOCCCCC(=O)N[C@H](C(=O)N3C[C@H](O)C[C@H]3C(=O)NCc3ccc(-c4scnc4C)cc3)C(C)(C)C)c2)C[C@H]1C(=O)N[C@@H]1CCCc2ccccc21)C1CCCCC1 [PROTAC 7, (2S,4S)-1-((S)-2-Cyclohexyl-2-((S)-2-(methylamino)propanamido)acetyl)-4-(3-((6-((5-((5-(((S)-1-((2S,4R)-4-hydroxy-2-((4-(4-methylthiazol-5-yl)benzyl)carbamoyl)pyrrolidin-1-yl)-3,3-dimethyl-1-oxobutan-2-yl)amino)-5-oxopentyl)oxy)pentyl)oxy)hexyl)oxy)phenoxy)-N-((R)-1,2,3,4-tetrahydronaphthalen-1-yl)pyrrolidine-2-carboxamide] |  |  |  |  |  | remaining activity at 0.1 µM (XIAP; [7]): 3%; remaining activity at 0.1 µM (cIAP2; [8]): 32%; remaining activity at 0.1 µM (cIAP1; [9]): 2%; remaining activity at 0.1 µM (VHL30; [10]): 83% |
| CN[C@@H](C)C(=O)N[C@H](C(=O)N1C[C@@H](Oc2cccc(OCCCCCCOCCCCCCOCCCCCC(=O)N[C@H](C(=O)N3C[C@H](O)C[C@H]3C(=O)NCc3ccc(-c4scnc4C)cc3)C(C)(C)C)c2)C[C@H]1C(=O)N[C@@H]1CCCc2ccccc21)C1CCCCC1 [PROTAC 8, (2S,4S)-1-((S)-2-Cyclohexyl-2-((S)-2-(methylamino)propanamido)acetyl)-4-(3-((6-((6-((6-(((S)-1-((2S,4R)-4-hydroxy-2-((4-(4-methylthiazol-5-yl)benzyl)carbamoyl)pyrrolidin-1-yl)-3,3-dimethyl-1-oxobutan-2-yl)amino)-6-oxohexyl)oxy)hexyl)oxy)hexyl)oxy)phenoxy)-N-((R)-1,2,3,4-tetrahydronaphthalen-1-yl)pyrrolidine-2-carboxamide] | 4 | 36 | 3 | 95 |  |  |
| CN[C@H](C)C(=O)N[C@H](C(=O)N1C[C@@H](Oc2cccc(OCCCCC(=O)N[C@H](C(=O)N3C[C@H](O)C[C@H]3C(=O)N[C@@H](C)c3ccc(-c4scnc4C)cc3)C(C)(C)C)c2)C[C@H]1C(=O)N[C@@H]1CCCc2ccccc21)C1CCCCC1 [PROTAC 10a, (2S,4S)-1-((S)-2-Cyclohexyl-2-((R)-2-(methylamino)propanamido)acetyl)-4-(3-((5-(((S)-1-((2S,4R)-4-hydroxy-2-(((S)-1-(4-(4-methylthiazol-5-yl)phenyl)ethyl)carbamoyl)pyrrolidin-1-yl)-3,3-dimethyl-1-oxobutan-2-yl)amino)-5-oxopentyl)oxy)phenoxy)-N-((R)-1,2,3,4-tetrahydronaphthalen-1-yl)pyrrolidine-2-carboxamide] | 8 | 37 | 6 | 41 | pan-IAP |  |
| Cc1ncsc1-c1ccc([C@H](C)NC(=O)[C@@H]2C[C@@H](O)CN2C(=O)[C@@H](NC(=O)CCCCOc2cccc(O[C@H]3C[C@@H](C(=O)N[C@@H]4CCCc5ccccc54)N(C(=O)[C@@H](NC(=O)[C@H](C)N(C)C)C4CCCCC4)C3)c2)C(C)(C)C)cc1 [PROTAC 10b, (2S,4S)-1-((S)-2-Cyclohexyl-2-((S)-2-(dimethylamino)propanamido)acetyl)-4-(3-((5-(((S)-1-((2S,4R)-4-hydroxy-2-(((S)-1-(4-(4-methylthiazol-5-yl)phenyl)ethyl)carbamoyl)pyrrolidin-1-yl)-3,3-dimethyl-1-oxobutan-2-yl)amino)-5-oxopentyl)oxy)phenoxy)-N-((R)-1,2,3,4-tetrahydronaphthalen-1-yl)pyrrolidine-2-carboxamide] | 66 | 27 | 2 | 63 | cIAP1 and cIAP2 degradation |  |
| CC(=O)N(C)[C@@H](C)C(=O)N[C@H](C(=O)N1C[C@@H](Oc2cccc(OCCCCC(=O)N[C@H](C(=O)N3C[C@H](O)C[C@H]3C(=O)N[C@@H](C)c3ccc(-c4scnc4C)cc3)C(C)(C)C)c2)C[C@H]1C(=O)N[C@@H]1CCCc2ccccc21)C1CCCCC1 [PROTAC 10c, (2S,4S)-1-((S)-2-Cyclohexyl-2-((S)-2-(N-methylacetamido)propanamido)acetyl)-4-(3-((5-(((S)-1-((2S,4R)-4-hydroxy-2-(((S)-1-(4-(4-methylthiazol-5-yl)phenyl)ethyl)carbamoyl)pyrrolidin-1-yl)-3,3-dimethyl-1-oxobutan-2-yl)amino)-5-oxopentyl)oxy)phenoxy)-N-((R)-1,2,3,4-tetrahydronaphthalen-1-yl)pyrrolidine-2-carboxamide] | 88 | > 99 | 94 | > 99 | inactivated PROTACs |  |
| CN[C@@H](C)C(=O)N[C@H](C(=O)N1C[C@@H](Oc2cccc(OCCCCCCOCCCCCOCCCCCOc3cc(-c4scnc4C)ccc3CNC(=O)[C@@H]3C[C@@H](O)CN3C(=O)[C@H](C(C)C)N3Cc4ccccc4C3=O)c2)C[C@H]1C(=O)N[C@@H]1CCCc2ccccc21)C1CCCCC1 [PROTAC 18, (2S,4S)-1-((S)-2-Cyclohexyl-2-((S)-2-(methylamino)propanamido)acetyl)-4-(3-((6-((5-((5-(2-(((2S,4R)-4-hydroxy-1-((S)-3-methyl-2-(1-oxoisoindolin-2-yl)butanoyl)pyrrolidine-2-carboxamido)methyl)-5-(4-methylthiazol-5-yl)phenoxy)pentyl)oxy)pentyl)oxy)hexyl)oxy)phenoxy)-N-((R)-1,2,3,4-tetrahydronaphthalen-1-yl)pyrrolidine-2-carboxamide] |  |  |  |  |  | remaining activity at 0.1 µM (XIAP; [7]): 6%; remaining activity at 0.1 µM (cIAP2; [8]): 37%; remaining activity at 0.1 µM (cIAP1; [9]): 5%; remaining activity at 0.1 µM (VHL30; [10]): 88%; chromatographic logD [2]: 5.6 |
| CN[C@@H](C)C(=O)N[C@H](C(=O)N1C[C@@H](Oc2cccc(OCCCCCCOCCCCCCOCCCCCCNc3cccc4c3C(=O)N(C3CCC(=O)N(C)C3=O)C4=O)c2)C[C@H]1C(=O)N[C@@H]1CCCc2ccccc21)C1CCCCC1 (stereo partly drawn) [PROTAC 29, (2S,4S)-1-((S)-2-Cyclohexyl-2-((S)-2-(methylamino)propanamido)acetyl)-4-(3-((6-((6-((6-((2-(1-methyl-2,6-dioxopiperidin-3-yl)-1,3-dioxoisoindolin-4-yl)amino)hexyl)oxy)hexyl)oxy)hexyl)oxy)phenoxy)-N-((R)-1,2,3,4-tetrahydronaphthalen-1-yl)pyrrolidine-2-carboxamide] |  |  |  |  |  | chromatographic logD [2]: 7.4 |
